{"source": "ChEMBL document CHEMBL5230116", "about": "“Recent developments of small molecules with anti-inflammatory activities for the treatment of acute lung injury” (Eur J Med Chem, 2020)", "key": {"[1]": {"target": "T1, 72 kDa type IV collagenase (Homo sapiens, UniProt P08253)", "T1 sequence (P08253 whole entry)": "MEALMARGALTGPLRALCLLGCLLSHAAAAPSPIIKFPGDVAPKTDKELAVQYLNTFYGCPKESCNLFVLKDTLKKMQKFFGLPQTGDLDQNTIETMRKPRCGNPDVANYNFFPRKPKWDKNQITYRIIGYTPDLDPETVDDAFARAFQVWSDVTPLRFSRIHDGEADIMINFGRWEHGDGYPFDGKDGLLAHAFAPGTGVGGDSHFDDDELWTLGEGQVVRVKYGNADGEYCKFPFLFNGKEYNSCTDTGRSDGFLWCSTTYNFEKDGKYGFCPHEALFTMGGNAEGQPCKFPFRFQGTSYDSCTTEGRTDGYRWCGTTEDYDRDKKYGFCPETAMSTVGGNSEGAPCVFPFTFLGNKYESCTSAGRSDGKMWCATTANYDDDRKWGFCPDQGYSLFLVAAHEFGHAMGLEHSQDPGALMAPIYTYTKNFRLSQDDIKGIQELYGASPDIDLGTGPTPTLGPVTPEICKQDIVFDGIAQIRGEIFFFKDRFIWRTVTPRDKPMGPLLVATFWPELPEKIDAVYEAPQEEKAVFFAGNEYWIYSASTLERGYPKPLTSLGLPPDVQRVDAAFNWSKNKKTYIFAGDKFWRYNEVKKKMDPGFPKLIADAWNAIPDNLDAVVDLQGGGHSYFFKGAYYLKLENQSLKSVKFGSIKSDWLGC", "assay": "Inhibition of recombinant human MMP-2 using QF24 as substrate incubated for 3 hrs by spectrofluorometer assay"}, "Neutrophil collagenase": {"target": "Neutrophil collagenase (Homo sapiens, UniProt P22894)", "sequence (P22894 whole entry)": "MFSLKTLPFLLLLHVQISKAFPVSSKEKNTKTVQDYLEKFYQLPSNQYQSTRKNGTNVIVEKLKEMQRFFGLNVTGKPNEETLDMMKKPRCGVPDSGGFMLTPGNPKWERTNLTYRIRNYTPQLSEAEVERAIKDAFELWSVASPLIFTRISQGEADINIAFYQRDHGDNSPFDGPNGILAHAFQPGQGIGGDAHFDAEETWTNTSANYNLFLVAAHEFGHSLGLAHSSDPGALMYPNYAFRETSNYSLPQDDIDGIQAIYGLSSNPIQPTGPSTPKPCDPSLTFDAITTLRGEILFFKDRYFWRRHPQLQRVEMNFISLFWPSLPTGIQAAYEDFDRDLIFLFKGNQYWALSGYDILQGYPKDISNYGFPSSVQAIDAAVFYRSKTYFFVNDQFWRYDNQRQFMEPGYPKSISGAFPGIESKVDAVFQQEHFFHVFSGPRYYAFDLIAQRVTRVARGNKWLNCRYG", "assay": "Inhibition of recombinant human MMP-8 using QF24 as substrate incubated for 3 hrs by spectrofluorometer assay"}, "[2]": {"assay": "Inhibition of LPS induced TNF-alpha expression in ICR mouse peritoneal macrophage at 10 uM incubated for 30 mins followed by LPS stimulation measured after 24 hrs by ELISA assay relative to control", "format": "functional", "details": "[…]"}, "[3]": {"assay": "Inhibition of LPS induced IL-6 expression in ICR mouse peritoneal macrophage at 10 uM incubated for 30 mins followed by LPS stimulation measured after 24 hrs by ELISA assay relative to control", "format": "functional", "details": "[…]"}, "[4]": {"assay": "Inhibition of IL-6 expression in LPS stimulated mouse RAW264.7 cells incubated for 1 hr by ELISA assay", "format": "functional, cell-based", "details": "RAW264.7, 1 h"}, "RAW264.7": {"system": "RAW264.7", "assay": "Inhibition of NO production in LPS stimulated mouse RAW264.7 cells incubated for 1 hr by Griess reagent based assay", "format": "functional, cell-based", "details": "RAW264.7, 1 h"}, "[5]": {"assay": "Inhibition of TNF-alpha expression in LPS stimulated mouse RAW264.7 cells incubated for 1 hr by ELISA assay", "format": "functional, cell-based", "details": "RAW264.7, 1 h"}, "[6]": {"target": "T1, 72 kDa type IV collagenase", "assay": "Inhibition of MMP-2 (unknown origin)"}, "[7]": {"target": "Matrix metalloproteinase-9 (Homo sapiens, UniProt P14780)", "sequence (P14780 whole entry)": "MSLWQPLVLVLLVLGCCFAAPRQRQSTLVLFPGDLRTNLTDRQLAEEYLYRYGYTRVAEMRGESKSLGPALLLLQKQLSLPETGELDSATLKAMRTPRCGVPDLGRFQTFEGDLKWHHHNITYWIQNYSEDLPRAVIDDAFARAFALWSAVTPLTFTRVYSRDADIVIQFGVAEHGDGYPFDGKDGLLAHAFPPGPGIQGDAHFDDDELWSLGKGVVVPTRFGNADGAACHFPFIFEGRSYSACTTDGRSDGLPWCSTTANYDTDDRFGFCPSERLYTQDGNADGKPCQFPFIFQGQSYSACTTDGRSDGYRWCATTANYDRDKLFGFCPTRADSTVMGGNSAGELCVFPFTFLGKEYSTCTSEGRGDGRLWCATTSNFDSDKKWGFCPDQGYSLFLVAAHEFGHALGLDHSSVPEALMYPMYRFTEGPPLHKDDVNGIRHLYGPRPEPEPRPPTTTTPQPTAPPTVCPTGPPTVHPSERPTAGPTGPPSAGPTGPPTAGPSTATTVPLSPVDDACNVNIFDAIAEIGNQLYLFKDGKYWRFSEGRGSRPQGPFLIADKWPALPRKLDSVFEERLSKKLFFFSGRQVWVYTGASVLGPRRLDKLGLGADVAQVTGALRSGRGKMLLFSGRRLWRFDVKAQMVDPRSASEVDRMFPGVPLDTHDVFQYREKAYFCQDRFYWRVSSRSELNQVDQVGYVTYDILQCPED", "assay": "Inhibition of MMP-9 (unknown origin)"}, "[8]": {"assay": "Oral bioavailability in rat at 3 mg/kg", "format": "ADME, organism-based", "details": "in vivo"}, "[9]": {"assay": "Half life in rat at 3 mg/kg, po", "format": "ADME, organism-based", "details": "in vivo"}}, "data": [{"smiles": "O=C(CCN1CCN(Cc2ccccc2)CC1)Nc1nc(-c2ccccc2)cs1", "values": [{"measurement": "IC50", "setting": "[1]", "value": 10.2, "unit": "µM"}, {"measurement": "IC50", "setting": "Neutrophil collagenase", "value": 11.9, "unit": "µM"}]}, {"smiles": "COc1cc(/C=C2\\Cc3ccc(O)cc3C2=O)ccc1O", "values": [{"measurement": "inhibition at 10 µM", "setting": "[2]", "value": 83.7, "unit": "%"}, {"measurement": "inhibition at 10 µM", "setting": "[3]", "value": 69.3, "unit": "%"}]}, {"smiles": "CCCc1nn(C)c2c(NCCCN3CCOCC3)nc(/C=C/c3cc(OC)c(OC)c(OC)c3)nc12", "values": [{"measurement": "IC50", "setting": "[4]", "value": 4.38, "unit": "µM"}, {"measurement": "IC50", "setting": "RAW264.7", "value": 2.64, "unit": "µM"}, {"measurement": "IC50", "setting": "[5]", "value": 5.63, "unit": "µM"}]}, {"smiles": "CCCOc1cccc2c1C(=O)/C(=C/c1ccc(O)c(OC)c1)C2", "values": [{"measurement": "inhibition at 10 µM", "setting": "[2]", "value": 72, "unit": "%"}, {"measurement": "inhibition at 10 µM", "setting": "[3]", "value": 84.9, "unit": "%"}]}, {"smiles": "O=C(CN1CCN(c2ccccc2)CC1)Nc1nc(-c2ccc(F)cc2)cs1", "values": [{"measurement": "IC50", "setting": "[1]", "value": 4.22, "unit": "µM"}, {"measurement": "IC50", "setting": "Neutrophil collagenase", "value": 2.34, "unit": "µM"}]}, {"smiles": "COc1cc(/C=C2\\Cc3cc(OC)c(OC)cc3C2=O)ccc1O", "values": [{"measurement": "inhibition at 10 µM", "setting": "[2]", "value": 79.3, "unit": "%"}, {"measurement": "inhibition at 10 µM", "setting": "[3]", "value": 81.4, "unit": "%"}]}, {"smiles": "O=C1NC(=O)C(O)(CC(=O)c2ccc(NS(=O)(=O)c3ccc(C(F)(F)F)cc3)cc2)C(=O)N1", "values": [{"measurement": "IC50", "setting": "[6]", "value": 0.00235, "unit": "µM"}, {"measurement": "IC50", "setting": "[7]", "value": 0.00824, "unit": "µM"}]}, {"smiles": "Cc1coc2c1C(=O)c1c3c-2ccc2c3c(n1Cc1ccccc1)C(=O)CC2(C)C", "values": [{"measurement": "bioavailability", "setting": "[8]", "value": 30.2, "unit": "%"}, {"measurement": "half-life", "setting": "[9]", "value": 4.05, "unit": "h"}]}, {"smiles": "Cc1coc2c1C(=O)C(=O)c1c-2ccc2c1CCCC2(C)C", "note": "[TANSHINONE IIA]", "values": [{"measurement": "bioavailability", "setting": "[8]", "value": "< 3.5", "unit": "%"}, {"measurement": "half-life", "setting": "[9]", "value": 0.34, "unit": "h"}]}]}
